Measurements as given in US20180344763A1, “METHODS FOR ADVERSELY AFFECTING BIOFILMS” (Commonwealth Scientific and Industrial Research Organisation, priority 2015, published 2018).
Values after ≈ are worked out from the molar mass of the structure shown. Values belong to the compound of their own block, whether it stands above or below them.

Tests used:
C. albicans [1] = test: Broth microdilution MIC, planktonic cells; type: cell-based, Candida albicans; settings: C. albicans single species culture, RPMI-1640, 48 h
Procedure: (§1) Minimum inhibitory concentrations (MICs) for antibacterial and antifungal agents were determined using the broth microdilution method according to CLSI guidelines M07-A9 (for S. aureus) and M27-A3 (for C. albicans), but replacing Muller-Hinton broth with RPMI-1640 for antibacterial MIC testing. One hundred microlitres of two-fold serial dilutions of the drugs prepared in RPMI-1640 were added into the wells of 96-well microplates. Exponentially grown cultures were diluted in RPMI-1640 to a density of ˜1×10^3 CFU/mL for C. albicans and ˜1×10^6 CFU/mL for S. aureus and 100 μL were added to each well. Microplates were incubated for 18 h at 35° C. for S. aureus and 48 h for C. albicans. Bacterial or fungal growth was examined visually with the aid of a mirror reader. The antibacterial MIC was defined as the lowest concentration resulting in complete growth inhibition. The MIC of antifungals was read as the lowest concentration that prevents discernible growth for amphotericin B or polymers, or as the lowest concentration that inhibits at least 50% of fungal growth for fluconazole and caspofungin, corresponding to a score of zero or two in the CLSI M27-A3 protocol.

C. albicans biofilms = test: Antimicrobial susceptibility of single biofilm (XTT, biofilm MIC80); type: cell-based, Candida albicans; settings: for Biofilm MIC80: C. albicans single species biofilm, 48 h treatment; for Activity against C. albicans monomicrobial biofilms: compared with planktonic growth
Procedure: (§2) Single biofilms of S. aureus or C. albicans were set up in 96-well microplates as described above. After overnight incubation, the cell suspensions were aspirated and the wells were rinsed twice with 100 μL of PBS per well to remove non-adherent cells. Two hundred microlitres of antimicrobial agents were added into each well, and the treatments lasted for 18 h for S. aureus and 48 h for C. albicans. After the treatment, the suspensions were removed and the microwells were washed twice with PBS. Two hundred microlitres of 2, 3-bis (2-methoxy-4-nitro-5-sulfophenyl)-5-[(phenylamino) carbonyl]-2H-tetrazolium hydroxide (XTT, 0.5 mg/L) solution were added into each well and the microplate were incubated at 37° C. in the dark for 2 h. One hundred microliters of XTT solution were transferred to a new microplate and read at OD492. Alternatively, the efficacy of antimicrobial agents against biofilms was determined based on the reduction in viable counts after exposure to antimicrobials. The ratio of cell survival (cell density after antimicrobial treatment) relative to antimicrobial-free culture (cell density of the drug-free biofilms) (×100) was calculated.

S. aureus biofilms = test: as above; type: cell-based, Staphylococcus aureus; settings: S. aureus single species biofilm, 18 h treatment
Procedure: as §2

[2] = test system: S. aureus 24 h single biofilms; test: Catheter lock solution re-growth assay (MBEC); type: cell-based, Staphylococcus aureus; settings: S. aureus 24 h biofilm, 18 h exposure
Procedure: (§3) Biofilms were washed three times with saline to remove the residual antimicrobial agents. Two hundred microliter volumes of TSB were then added to each well and microplates were incubated at 35° C. for a further 48 h. A microplate shaker (speed 2) ([…], Flow laboratories, Germany) was used to facilitate the multiplication and release of any living cells remaining in the biofilms. After 48 h, 150 μL of the contents in each well in the microplate was transferred to a U-bottom microplate and examined visually for turbidity. The lowest concentration of antimicrobial agents corresponding to clear wells was defined as the minimum biofilm eradication concentration (MBEC) for successful use as CLS.

[3] = test system: C. albicans 24 h single biofilms; test: Catheter lock solution re-growth assay (MBEC); type: cell-based, Candida albicans; settings: C. albicans 24 h biofilm, 18 h exposure
Procedure: as §3

[4] = test system: C. albicans-S. aureus polymicrobial biofilms; test: Catheter lock solution re-growth assay (MBEC); type: cell-based, Candida albicans and Staphylococcus aureus; settings: polymicrobial 24 h biofilm, 18 h exposure
Procedure: as §3

C. albicans [5] = test: Planktonic MIC in presence or absence of isolated biofilm matrix; type: cell-based, Candida albicans
Procedure: as §1
(§4) Extracellular matrix was isolated from Candida or polymicrobial biofilms following the method reported in PLoS pathogens 2012, 8:e1002848. Biofilms were established by growing cultures in 6-well TCPS microplates for 48 h at 37° C. Supernatants were carefully removed from each well and the biofilms were washed once with sterile distilled water. One millilitre of distilled water was added into each well, and the biofilms were removed using a cell scraper. This step was repeated three times. The suspensions containing dislodged biofilms were then transferred into a 50 ml Falcon tube, sonicated with a Branson Sonicator for 10 min (duty cycle constant, output 20%). The suspensions were vortexed for 2 min at full speed (4×30 s), prior to centrifugation at 6000 rpm for 15 min for 5 times. The supernatants containing the extracellular matrix were removed and stored at −20° C. […]

S. aureus [6] = test: Broth microdilution MIC, planktonic cells; type: cell-based; settings: Staphylococcus aureus; S. aureus single species culture, RPMI-1640, 18 h
S. aureus [7] = test: Planktonic MIC in presence or absence of isolated biofilm matrix; type: cell-based, Staphylococcus aureus
Procedure: as §1, §4

Planktonic MIC (C. albicans [1]): 1 µg/mL
Biofilm MIC80 (C. albicans biofilms): 1 µg/mL
SMILES: C[C@@H]1[C@H](O)[C@@H](C)/C=C/C=C/C=C/C=C/C=C/C=C/C=C/[C@H](O[C@@H]2O[C@H](C)[C@@H](O)[C@H](N)[C@@H]2O)C[C@@H]2O[C@](O)(C[C@@H](O)C[C@@H](O)[C@H](O)CC[C@@H](O)C[C@@H](O)CC(=O)O[C@H]1C)C[C@H](O)[C@H]2C(=O)O [Amphotericin B, amphotericin B]
Activity against C. albicans monomicrobial biofilms (C. albicans biofilms): retaining their activities

MIC (C. albicans [1]; Candida albicans): 1 µg/mL (≈ 0.915 µM)
Biofilm MIC80 (C. albicans biofilms): 0.12 µg/mL
SMILES: CC[C@H](C)C[C@H](C)CCCCCCCCC(=O)N[C@H]1C[C@@H](O)[C@@H](NCCN)NC(=O)[C@@H]2[C@@H](O)CCN2C(=O)[C@H]([C@H](O)CCN)NC(=O)[C@H]([C@H](O)[C@@H](O)c2ccc(O)cc2)NC(=O)[C@@H]2C[C@@H](O)CN2C(=O)[C@H]([C@@H](C)O)NC1=O [Caspofungin, caspofungin]
Activity against C. albicans monomicrobial biofilms (C. albicans biofilms): retaining their activities

Biofilm MIC80 (S. aureus biofilms): >1024 µg/mL
SMILES: O=C(O)c1cn(C2CC2)c2cc(N3CCNCC3)c(F)cc2c1=O [Ciprofloxacin, ciprofloxacin]

SMILES: CCO [Ethanol, ethanol]
MBEC as catheter lock solution [2]: 20% (V/V)
MBEC as catheter lock solution [3]: 20% (V/V)
MBEC as catheter lock solution [4]: 20% (V/V)
MBEC as catheter lock solution ([4]; listed as ethanol): 20 % (V/V)

Biofilm MIC80 (C. albicans biofilms): >1024 µg/mL
Increase in MIC in presence of biofilm matrix (C. albicans [5]; C. albicans or polymicrobial biofilm matrix): 16 fold
MIC, C. albicans biofilm matrix (C. albicans [5]; in presence of C. albicans biofilm matrix): 8 µg/mL
MIC, polymicrobial biofilm matrix (C. albicans [5]; in presence of polymicrobial biofilm matrix): 8 µg/mL
SMILES: OC(Cn1cncn1)(Cn1cncn1)c1ccc(F)cc1F [Fluconazole, fluconazole]

SMILES: Cc1onc(-c2ccccc2)c1C(=O)N[C@@H]1C(=O)N2[C@@H]1SC(C)(C)[C@@H]2C(=O)O [Oxacillin, oxacillin]
MIC (S. aureus [6]): 0.06 µg/mL (≈ 0.149 µM)
Biofilm MIC80 (S. aureus biofilms): >1024 µg/mL

SMILES: CO[C@H]1/C=C/O[C@@]2(C)Oc3c(C)c(O)c4c(O)c(c(/C=N/N5CCN(C)CC5)c(O)c4c3C2=O)NC(=O)/C(C)=C\C=C\[C@H](C)[C@H](O)[C@@H](C)[C@@H](O)[C@@H](C)[C@H](OC(C)=O)[C@@H]1C [Rifampicin, rifampicin]
MIC (S. aureus [6]): 0.015 µg/mL (≈ 0.0182 µM)
Biofilm MIC80 (S. aureus biofilms): >1024 µg/mL

SMILES: CN[C@H](CC(C)C)C(=O)N[C@H]1C(=O)N[C@@H](CC(N)=O)C(=O)N[C@H]2C(=O)N[C@H]3C(=O)N[C@H](C(=O)N[C@H](C(=O)O)c4cc(O)cc(O)c4-c4cc3ccc4O)[C@H](O)c3ccc(c(Cl)c3)Oc3cc2cc(c3O[C@@H]2O[C@H](CO)[C@@H](O)[C@H](O)[C@H]2O[C@H]2C[C@](C)(N)[C@H](O)[C@H](C)O2)Oc2ccc(cc2Cl)[C@H]1O [Vancomycin, vancomycin]
MIC (S. aureus [6]): 1 µg/mL (≈ 0.69 µM)
Biofilm MIC80 (S. aureus biofilms): >1024 µg/mL
MIC, C. albicans biofilm matrix (S. aureus [7]; S. aureus, in presence of C. albicans biofilm matrix): 1 µg/mL
MIC, polymicrobial biofilm matrix (S. aureus [7]; S. aureus, in presence of polymicrobial biofilm matrix): 2 µg/mL
MIC (S. aureus [7]; Staphylococcus aureus, read-out: MIC, medium only): 2 µg/mL (≈ 1.38 µM)
